From the supplement of paper PMC10307832

How the values were obtained:
Test in all cases: relative viability (nuclei count vs DMSO), 5 days (fraction); higher = more cells survive
[1] = compound: COc1cc2c(Oc3ccc4[nH]c(C)cc4c3F)ncnc2cc1OCCCN1CCCC1 [Cediranib] + CS(=O)(=O)CCNCc1ccc(-c2ccc3ncnc(Nc4ccc(OCc5cccc(F)c5)c(Cl)c4)c3c2)o1 [Lapatinib] (partner 2 µM)
In short: (§1)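 After 5 days of treatment, lung cancer cells in 1536-well plates were fixed and stained in a single step (final 0.05% Triton X-100, 1% formaldehyde, 1 ug/ml Hoechst) and their nuclei counted on 4× images. Treatment had been applied by pin tool the day after seeding as one drug alone or as a fixed anchor-drug dose with five library-drug doses (not always all listed) in √10 steps. Relative viability is the nuclei count of treated wells divided by that of vehicle wells, and values are medians of duplicate plates.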

[2] = compound: Nc1ncn([C@H]2C[C@H](O)[C@@H](CO)O2)c(=O)n1 [Decitabine] + Nc1nc2[nH]cc(CCc3ccc(C(=O)N[C@@H](CCC(=O)O)C(=O)O)cc3)c2c(=O)[nH]1 [Pemetrexed] (partner 0.2 µM)
In short: as §1

[3] = compound: O=C(C[C@H]1NCCC[C@@H]1O)Cn1cnc2cc(Br)c(Cl)cc2c1=O (racemic) [Halofuginone] + CS(=O)(=O)N1CCN(Cc2cc3nc(-c4cccc5[nH]ncc45)nc(N4CCOCC4)c3s2)CC1 [Pictilisib] (partner 1 µM)
In short: as §1

[4] = compound: O=C(C[C@H]1NCCC[C@@H]1O)Cn1cnc2cc(Br)c(Cl)cc2c1=O (racemic) [Halofuginone] + Nc1nc2[nH]cc(CCc3ccc(C(=O)N[C@@H](CCC(=O)O)C(=O)O)cc3)c2c(=O)[nH]1 [Pemetrexed] (partner 0.2 µM)
In short: as §1

Cell Line NCI-H2009 has a relative viability ([1]; first compound 0.04 µM) of 0.882, a relative viability ([1]; first compound 0.1265 µM) of 0.239 and a relative viability ([1]; first compound 0.4 µM) of 0.94. The relative viability ([1]; first compound 1.265 µM) was 0.899, the relative viability ([1]; first compound 4 µM) was 1.15 and the relative viability ([2]; first compound 0.04 µM) was 0.902. It also gave a relative viability ([2]; first compound 0.1265 µM) of 0.727, a relative viability ([2]; first compound 0.4 µM) of 0.439 and a relative viability ([2]; first compound 1.265 µM) of 0.357. For the same cell line, the relative viability ([2]; first compound 4 µM) was 0.341, the relative viability ([3]; first compound 0.001 µM) was 1.07 and the relative viability ([3]; first compound 0.003162 µM) was 0.878. For the same cell line, the relative viability ([3]; first compound 0.01 µM) was 0.758, the relative viability ([3]; first compound 0.03162 µM) was 0.689 and the relative viability ([3]; first compound 0.1 µM) was 0.26. It also gave a relative viability ([4]; first compound 0.001 µM) of 1.04, a relative viability ([4]; first compound 0.003162 µM) of 0.999 and a relative viability ([4]; first compound 0.01 µM) of 0.999. The relative viability ([4]; first compound 0.03162 µM) was 0.977 and the relative viability ([4]; first compound 0.1 µM) was 0.548.

NCI-H2023 gave a relative viability ([1]; first compound 0.04 µM) of 0.852, a relative viability ([1]; first compound 0.1265 µM) of 0.0771 and a relative viability ([1]; first compound 0.4 µM) of 0.716. The relative viability ([1]; first compound 1.265 µM) was 0.654, the relative viability ([1]; first compound 4 µM) was 0.878 and the relative viability ([2]; first compound 0.04 µM) was 0.14. It also gave a relative viability ([2]; first compound 0.1265 µM) of 0.175, a relative viability ([2]; first compound 0.4 µM) of 0.144 and a relative viability ([2]; first compound 1.265 µM) of 0.126. It also gave a relative viability ([2]; first compound 4 µM) of 0.115, a relative viability ([3]; first compound 0.001 µM) of 0.268 and a relative viability ([3]; first compound 0.003162 µM) of 0.232. The relative viability ([3]; first compound 0.01 µM) was 0.228, the relative viability ([3]; first compound 0.03162 µM) was 0.141 and the relative viability ([3]; first compound 0.1 µM) was 0.0681. It also gave a relative viability ([4]; first compound 0.001 µM) of 0.297, a relative viability ([4]; first compound 0.003162 µM) of 0.185 and a relative viability ([4]; first compound 0.01 µM) of 0.213. It also gave a relative viability ([4]; first compound 0.03162 µM) of 0.152 and a relative viability ([4]; first compound 0.1 µM) of 0.0841.

In the case of NCI-H2085, the relative viability ([1]; first compound 0.04 µM) is reported as 0.846, the relative viability ([1]; first compound 0.1265 µM) is reported as 0.791 and the relative viability ([1]; first compound 0.4 µM) is reported as 0.839. For the same cell line, the relative viability ([1]; first compound 1.265 µM) was 0.725, the relative viability ([1]; first compound 4 µM) was 0.774 and the relative viability ([2]; first compound 0.04 µM) was 0.782. It also gave a relative viability ([2]; first compound 0.1265 µM) of 0.807, a relative viability ([2]; first compound 0.4 µM) of 0.511 and a relative viability ([2]; first compound 1.265 µM) of 0.513. For the same cell line, the relative viability ([2]; first compound 4 µM) was 0.364, the relative viability ([3]; first compound 0.001 µM) was 0.58 and the relative viability ([3]; first compound 0.003162 µM) was 0.407. For the same cell line, the relative viability ([3]; first compound 0.01 µM) was 0.448, the relative viability ([3]; first compound 0.03162 µM) was 0.515 and the relative viability ([3]; first compound 0.1 µM) was 0.48. It also gave a relative viability ([4]; first compound 0.001 µM) of 0.93, a relative viability ([4]; first compound 0.003162 µM) of 0.873 and a relative viability ([4]; first compound 0.01 µM) of 0.872. For the same cell line, the relative viability ([4]; first compound 0.03162 µM) was 1.03 and the relative viability ([4]; first compound 0.1 µM) was 0.783.

With NCI-H2087 the relative viability ([1]; first compound 0.04 µM) was 1.08, the relative viability ([1]; first compound 0.1265 µM) was 0.825 and the relative viability ([1]; first compound 0.4 µM) was 1.01. The relative viability ([1]; first compound 1.265 µM) was 0.984, the relative viability ([1]; first compound 4 µM) was 1.07 and the relative viability ([2]; first compound 0.04 µM) was 0.573. The relative viability ([2]; first compound 0.1265 µM) was 0.49, the relative viability ([2]; first compound 0.4 µM) was 0.451 and the relative viability ([2]; first compound 1.265 µM) was 0.291. The relative viability ([2]; first compound 4 µM) was 0.267, the relative viability ([3]; first compound 0.001 µM) was 0.986 and the relative viability ([3]; first compound 0.003162 µM) was 1.01. It also gave a relative viability ([3]; first compound 0.01 µM) of 0.799, a relative viability ([3]; first compound 0.03162 µM) of 1 and a relative viability ([3]; first compound 0.1 µM) of 0.831. For the same cell line, the relative viability ([4]; first compound 0.001 µM) was 0.673, the relative viability ([4]; first compound 0.003162 µM) was 0.657 and the relative viability ([4]; first compound 0.01 µM) was 0.686. For the same cell line, the relative viability ([4]; first compound 0.03162 µM) was 0.709 and the relative viability ([4]; first compound 0.1 µM) was 0.489.

In the case of NCI-H2126, the relative viability ([1]; first compound 0.04 µM) is reported as 0.749, the relative viability ([1]; first compound 0.1265 µM) is reported as 0.595 and the relative viability ([1]; first compound 0.4 µM) is reported as 0.715. For the same cell line, the relative viability ([1]; first compound 1.265 µM) was 0.55, the relative viability ([1]; first compound 4 µM) was 0.741 and the relative viability ([2]; first compound 0.04 µM) was 0.68. It also gave a relative viability ([2]; first compound 0.1265 µM) of 0.648, a relative viability ([2]; first compound 0.4 µM) of 0.391 and a relative viability ([2]; first compound 1.265 µM) of 0.453. For the same cell line, the relative viability ([2]; first compound 4 µM) was 0.341, the relative viability ([3]; first compound 0.001 µM) was 0.562 and the relative viability ([3]; first compound 0.003162 µM) was 0.486. For the same cell line, the relative viability ([3]; first compound 0.01 µM) was 0.533, the relative viability ([3]; first compound 0.03162 µM) was 0.485 and the relative viability ([3]; first compound 0.1 µM) was 0.427. The relative viability ([4]; first compound 0.001 µM) was 0.719, the relative viability ([4]; first compound 0.003162 µM) was 0.655 and the relative viability ([4]; first compound 0.01 µM) was 0.624. It also gave a relative viability ([4]; first compound 0.03162 µM) of 0.68 and a relative viability ([4]; first compound 0.1 µM) of 0.571.

NCI-H2170 showed a relative viability ([1]; first compound 0.04 µM) of 0.295, a relative viability ([1]; first compound 0.1265 µM) of 0.277 and a relative viability ([1]; first compound 0.4 µM) of 0.243. The relative viability ([1]; first compound 1.265 µM) was 0.232, the relative viability ([1]; first compound 4 µM) was 0.268 and the relative viability ([2]; first compound 0.04 µM) was 0.276. It also gave a relative viability ([2]; first compound 0.1265 µM) of 0.221, a relative viability ([2]; first compound 0.4 µM) of 0.227 and a relative viability ([2]; first compound 1.265 µM) of 0.217. It also gave a relative viability ([2]; first compound 4 µM) of 0.21, a relative viability ([3]; first compound 0.001 µM) of 0.311 and a relative viability ([3]; first compound 0.003162 µM) of 0.313. The relative viability ([3]; first compound 0.01 µM) was 0.313, the relative viability ([3]; first compound 0.03162 µM) was 0.32 and the relative viability ([3]; first compound 0.1 µM) was 0.26. The relative viability ([4]; first compound 0.001 µM) was 0.271, the relative viability ([4]; first compound 0.003162 µM) was 0.202 and the relative viability ([4]; first compound 0.01 µM) was 0.273. For the same cell line, the relative viability ([4]; first compound 0.03162 µM) was 0.25 and the relative viability ([4]; first compound 0.1 µM) was 0.275.

In the case of NCI-H2228, the relative viability ([1]; first compound 0.04 µM) is reported as 1.06, the relative viability ([1]; first compound 0.1265 µM) is reported as 1.07 and the relative viability ([1]; first compound 0.4 µM) is reported as 0.928. For the same cell line, the relative viability ([1]; first compound 1.265 µM) was 1.18, the relative viability ([1]; first compound 4 µM) was 1.17 and the relative viability ([2]; first compound 0.04 µM) was 0.232. The relative viability ([2]; first compound 0.1265 µM) was 0.208, the relative viability ([2]; first compound 0.4 µM) was 0.179 and the relative viability ([2]; first compound 1.265 µM) was 0.166. It also gave a relative viability ([2]; first compound 4 µM) of 0.163, a relative viability ([3]; first compound 0.001 µM) of 0.355 and a relative viability ([3]; first compound 0.003162 µM) of 0.455. The relative viability ([3]; first compound 0.01 µM) was 0.398, the relative viability ([3]; first compound 0.03162 µM) was 0.224 and the relative viability ([3]; first compound 0.1 µM) was 0.095. For the same cell line, the relative viability ([4]; first compound 0.001 µM) was 0.32, the relative viability ([4]; first compound 0.003162 µM) was 0.29 and the relative viability ([4]; first compound 0.01 µM) was 0.345. It also gave a relative viability ([4]; first compound 0.03162 µM) of 0.273 and a relative viability ([4]; first compound 0.1 µM) of 0.074.

With NCI-H2347 the relative viability ([1]; first compound 0.04 µM) was 1.07, the relative viability ([1]; first compound 0.1265 µM) was 0.512 and the relative viability ([1]; first compound 0.4 µM) was 0.916. For the same cell line, the relative viability ([1]; first compound 1.265 µM) was 0.909, the relative viability ([1]; first compound 4 µM) was 0.964 and the relative viability ([2]; first compound 0.04 µM) was 0.401. For the same cell line, the relative viability ([2]; first compound 0.1265 µM) was 0.396, the relative viability ([2]; first compound 0.4 µM) was 0.382 and the relative viability ([2]; first compound 1.265 µM) was 0.366. The relative viability ([2]; first compound 4 µM) was 0.386, the relative viability ([3]; first compound 0.001 µM) was 0.759 and the relative viability ([3]; first compound 0.003162 µM) was 0.636. For the same cell line, the relative viability ([3]; first compound 0.01 µM) was 0.445, the relative viability ([3]; first compound 0.03162 µM) was 0.699 and the relative viability ([3]; first compound 0.1 µM) was 0.374. For the same cell line, the relative viability ([4]; first compound 0.001 µM) was 0.412, the relative viability ([4]; first compound 0.003162 µM) was 0.445 and the relative viability ([4]; first compound 0.01 µM) was 0.432. It also gave a relative viability ([4]; first compound 0.03162 µM) of 0.43 and a relative viability ([4]; first compound 0.1 µM) of 0.429.
